US20240384268A1, “Oligonucleotides” (Hudson Institute of Medical Research, priority 2021, published 2024)

Target: T1, human TLR9 (Homo sapiens, UniProt Q9NR96)
T1 construct: HA; host or cells: 293XL-hTLR9-HA (HEK293)
T1 sequence (Q9NR96 26-1032): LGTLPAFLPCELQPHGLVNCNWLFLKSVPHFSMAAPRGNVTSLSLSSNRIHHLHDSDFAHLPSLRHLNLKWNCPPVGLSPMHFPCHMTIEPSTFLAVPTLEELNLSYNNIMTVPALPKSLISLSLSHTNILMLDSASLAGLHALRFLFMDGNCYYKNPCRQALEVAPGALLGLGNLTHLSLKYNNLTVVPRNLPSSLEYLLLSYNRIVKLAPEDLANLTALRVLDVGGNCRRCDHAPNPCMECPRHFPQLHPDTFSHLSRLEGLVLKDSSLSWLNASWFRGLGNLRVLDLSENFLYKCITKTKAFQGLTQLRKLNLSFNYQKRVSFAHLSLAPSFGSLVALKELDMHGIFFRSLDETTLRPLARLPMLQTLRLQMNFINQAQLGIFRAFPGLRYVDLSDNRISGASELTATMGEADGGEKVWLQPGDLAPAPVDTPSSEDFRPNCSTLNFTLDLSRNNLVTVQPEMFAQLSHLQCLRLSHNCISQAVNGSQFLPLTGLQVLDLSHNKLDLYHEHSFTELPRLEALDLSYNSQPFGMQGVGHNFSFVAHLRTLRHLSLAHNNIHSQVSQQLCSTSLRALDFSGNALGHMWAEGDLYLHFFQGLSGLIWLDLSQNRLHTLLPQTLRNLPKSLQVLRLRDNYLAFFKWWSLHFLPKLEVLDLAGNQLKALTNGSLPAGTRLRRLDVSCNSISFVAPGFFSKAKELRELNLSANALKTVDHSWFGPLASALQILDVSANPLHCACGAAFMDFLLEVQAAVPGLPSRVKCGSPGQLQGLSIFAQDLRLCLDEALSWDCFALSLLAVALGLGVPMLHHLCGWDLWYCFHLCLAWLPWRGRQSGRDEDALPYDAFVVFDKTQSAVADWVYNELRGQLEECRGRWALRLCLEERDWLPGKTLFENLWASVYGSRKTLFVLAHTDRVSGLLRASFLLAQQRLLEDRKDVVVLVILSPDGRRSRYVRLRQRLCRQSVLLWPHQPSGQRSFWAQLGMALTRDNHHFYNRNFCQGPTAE
Assay: HEK-TLR9 NF-κB-luciferase reporter, ODN2006 stimulation
Assay type: cell-based
Conditions: relative to ODN2006 only, given as fraction; for TLR9 100 nM (averaged NF-κB-Luciferase level relative to ODN2006 condition): ASO 100 nM; for TLR9 500 nM (averaged NF-κB-Luciferase level relative to ODN2006 condition): ASO 500 nM

Sequence	TLR9 100 nM (averaged NF-κB-Luciferase level relative to ODN2006 condition)	TLR9 500 nM (averaged NF-κB-Luciferase level relative to ODN2006 condition)
CTTCGTGGGGTCCTTT (antisense; LNA-modified, pattern not given here) [HPRT LNA-662 V1]	0.557	0.240
CTTGAAGCATCGTATC (antisense; LNA-modified, pattern not given here) [CTNN2B-3648 LNA KL]	0.899	0.483
CTTGGCTTCGTGGAGC (antisense; LNA-modified, pattern not given here) [MB21D1-520 LNA V1]	0.596	0.371
GAAAGGTTATGCAAGG (antisense; LNA-modified, pattern not given here) [CTNN2B-916 LNA KL]	0.748	0.606
GACTATACGCGCAATA (antisense; LNA-modified, pattern not given here) [NC5 LNA PS 3-10-3]	0.784	0.403
GAGGTCTTGGCTTCGT (antisense; LNA-modified, pattern not given here) [MB21D1-525 LNA V1]	0.897	0.224
GATGGCCTCCCATCTC (antisense; LNA-modified, pattern not given here) [HPRT LNA-331 V1]	1.033	0.476
GCACACTTCGTACCCA (antisense; LNA-modified, pattern not given here) [CAMSAP1-4915 LNA V1]	0.683	0.147
GCACTTCAGTCTGAGC (antisense; LNA-modified, pattern not given here) [MB21D1-719 LNA KL]	0.673	0.144
GGAGGTCTTGGCTTCG (antisense; LNA-modified, pattern not given here) [MB21D1-526 LNA V1]	0.912	0.674
GGCACTTTGCCTCCTT (antisense; LNA-modified, pattern not given here) [EGFR-2859 LNA V1]	1.092	0.788
GGCTCGGCTTGCCTAC (antisense; LNA-modified, pattern not given here) [CAMSAP1-5594 LNA V1]	0.714	0.350
GGTCATTACAATAGCT (antisense; LNA-modified, pattern not given here) [HPRT LNA-475 KL]	0.438	0.604
GGTCTTGGCTTCGTGG (antisense; LNA-modified, pattern not given here) [MB21D1-523 LNA V1]	0.658	0.417
GTCAAGGGCATATCCT (antisense; LNA-modified, pattern not given here) [HPRT LNA-732 KL]	0.844	0.387
